Like-named read-outs stand apart in the source and are kept apart here.
What was measured:
[1] = system: non-vasculogenic impotent patients; test: Dose Evaluation Study: clinical response to sublingual apomorphine tablets before intercourse; settings: for Positive Responses % / Positive Responses No.: 20 days
[2] = 3 mg tablet 20 minutes prior to intercourse, 5 patients
[3] = 4 mg tablet 20 minutes prior to intercourse, 5 patients
[4] = 5 mg tablet 20 minutes prior to intercourse, 10 patients
[5] = 6 mg tablet 20 minutes prior to intercourse, 10 patients
[6] = 7 mg tablet 20 minutes prior to intercourse, 10 patients
[7] = 8 mg tablet 20 minutes prior to intercourse, 10 patients
[8] = 10 mg tablet 20 minutes prior to intercourse, 10 patients

CN1CCc2cccc3c2[C@H]1Cc1ccc(O)c(O)c1-3 [apomorphine]
Positive Responses % [1, 2]: 0% | Positive Responses No. [1, 2]: 0 | Nausea % ([1]; 3 mg tablet, 5 patients): 0% | Nausea No. ([1]; 3 mg tablet, 5 patients): 0 | Vomiting % ([1]; 3 mg tablet, 5 patients): 0% | Vomiting No. ([1]; 3 mg tablet, 5 patients): 0 | Positive Responses % [1, 3]: 40% | Positive Responses No. [1, 3]: 2 | Nausea % ([1]; 4 mg tablet, 5 patients): 20% | Nausea No. ([1]; 4 mg tablet, 5 patients): 1 | Vomiting % ([1]; 4 mg tablet, 5 patients): 20% | Vomiting No. ([1]; 4 mg tablet, 5 patients): 1 | Positive Responses % [1, 4]: 50% | Positive Responses No. [1, 4]: 5 | Nausea % ([1]; 5 mg tablet, 10 patients): 20% | Nausea No. ([1]; 5 mg tablet, 10 patients): 2 | Vomiting % ([1]; 5 mg tablet, 10 patients): 10% | Vomiting No. ([1]; 5 mg tablet, 10 patients): 1 | Positive Responses % [1, 5]: 70% | Positive Responses No. [1, 5]: 7 | Nausea % ([1]; 6 mg tablet, 10 patients): 20% | Nausea No. ([1]; 6 mg tablet, 10 patients): 2 | Vomiting % ([1]; 6 mg tablet, 10 patients): 20% | Vomiting No. ([1]; 6 mg tablet, 10 patients): 2 | Positive Responses % [1, 6]: 70% | Positive Responses No. [1, 6]: 7 | Nausea % ([1]; 7 mg tablet, 10 patients): 20% | Nausea No. ([1]; 7 mg tablet, 10 patients): 2 | Vomiting % ([1]; 7 mg tablet, 10 patients): 20% | Vomiting No. ([1]; 7 mg tablet, 10 patients): 2 | Positive Responses % [1, 7]: 70% | Positive Responses No. [1, 7]: 7 | Nausea % ([1]; 8 mg tablet, 10 patients): 30% | Nausea No. ([1]; 8 mg tablet, 10 patients): 3 | Vomiting % ([1]; 8 mg tablet, 10 patients): 30% | Vomiting No. ([1]; 8 mg tablet, 10 patients): 3 | Positive Responses % [1, 8]: 80% | Positive Responses No. [1, 8]: 8 | Nausea % ([1]; 10 mg tablet, 10 patients): 40% | Nausea No. ([1]; 10 mg tablet, 10 patients): 4 | Vomiting % ([1]; 10 mg tablet, 10 patients): 40% | Vomiting No. ([1]; 10 mg tablet, 10 patients): 4 | Ke (IV Administration, mean (Table XII)): 0.0237 min⁻¹ | Ke (IV administration 1 mg, mean, n = 7): 0.0237 min⁻¹ | Vd (male, human, in vivo, 0.114 mg/kg): 2.07 L/kg | Ke (sublingual 4 mg dose, individual subjects #1, #3, #6, #7): 0.0060 min⁻¹ | Ke (sublingual 8 mg Dose, mean (Table XII)): 0.0056 min⁻¹ | Ke (sublingual administration 8 mg dose, mean, n = 4): 0.0056 min⁻¹

Reference: patent US6566368B2, “Apomorphine-containing dosage form for ameliorating male erectile dysfunction” (Pentech Pharmaceuticals, Inc., priority 1994, dated 2003)
